From the OligoGym collection
“And” between values parts separate entries of the source, which are not always exact repeats. Equal values may be shown once. After the bases stand the sugars from the 5' end (letter, count) and the backbone: PS all phosphorothioate, else s phosphorothioate and o phosphodiester by linkage. Methylation of C is not given here. e = 2'-O-(2-methoxyethyl) (MOE); k = constrained ethyl (cEt); d = 2'-deoxy (DNA)

How the values were obtained:
[1] = target: APOL1; details: ASO
[2] = target: MALAT1; details: ASO, A431, 0.005 µM

Sequence | target mRNA inhibition ([1]; A431, 2 µM) | target mRNA inhibition [2] | also measured
AAAGAACTCAAGTCAG (sugars k4 d9 k3, PS) |  |  | target mRNA inhibition ([1]; A431, 0.25 µM): 61% and 82%; target mRNA inhibition ([1]; A431, 1 µM): 83% and 90%
AACACATCATTGGGTT (sugars k2 d4 e3 k2 d5, PS) | 43% |  | 
AACACATCATTGGGTT (sugars k3 d4 k3 e1 d5, PS) | 58% |  | 
AACTTTACCTCACCCT (sugars k4 d9 k3, PS) |  |  | target mRNA inhibition ([1]; A431, 0.0625 µM): 35%; target mRNA inhibition ([1]; A431, 0.25 µM): 68%; target mRNA inhibition ([1]; A431, 1 µM): 88%
AAGATTGGCTCTGGCT (sugars k2 d4 e3 k2 d5, PS) | 63% |  | 
AAGATTGGCTCTGGCT (sugars kkddddkekekddddd, PS) | 37% |  | 
AAGCTTTAAACTCAGG (sugars kkddddekekeddddd, PS) | 95% |  | target mRNA inhibition ([1]; A431, 0.0156 µM): 20%; target mRNA inhibition ([1]; A431, 0.0625 µM): 58%; target mRNA inhibition ([1]; A431, 0.25 µM): 84%; target mRNA inhibition ([1]; A431, 1 µM): 92%
AAGCTTTAAACTCAGG (sugars kkkddddkekekdddd, PS) | 16% |  | 
AAGGTTGTCCAGAGCT (sugars k4 d9 k3, PS) |  |  | target mRNA inhibition ([1]; A431, 0.0625 µM): 28%; target mRNA inhibition ([1]; A431, 0.25 µM): 27%; target mRNA inhibition ([1]; A431, 1 µM): 65%
AAGTATTGCCAGCTAA (sugars kekddddeekkddddd, PS) | 88% |  | 
AAGTATTGCCAGCTAA (sugars kkddddekekeddddd, PS) | 49% |  | 
AATATCAGAGTGTACC (sugars k4 d9 k3, PS) |  |  | target mRNA inhibition ([1]; A431, 0.0625 µM): 51%; target mRNA inhibition ([1]; A431, 0.25 µM): 73%; target mRNA inhibition ([1]; A431, 1 µM): 84%
AATTATGGAATTGCAG (sugars kdddddkekekddddd, PS) | 52% |  | 
AATTCTATTAGAGGGC (sugars kkddddkekekddddd, PS) | 56% |  | 
AATTTTATGGAACCTC (sugars k3 d10 k3, PS) |  |  | target mRNA inhibition ([1]; A431, 0.0625 µM): 37%; target mRNA inhibition ([1]; A431, 0.25 µM): 74%; target mRNA inhibition ([1]; A431, 1 µM): 90%
ACACATCATTGGGTTA (sugars kdddddkekekddddd, PS) | 47% |  | 
ACACATCATTGGGTTA (sugars kekddddeekkddddd, PS) | 87% |  | 
ACACATCATTGGGTTA (sugars kkddddekekeddddd, PS) | 64% |  | 
ACACATCATTGGGTTA (sugars kkddddkdkdkddddd, PS) | 57% |  | 
ACCCTCTTTATCCCCC (sugars k4 d9 k3, PS) |  |  | target mRNA inhibition ([1]; A431, 0.0625 µM): 53% and 39%; target mRNA inhibition ([1]; A431, 0.25 µM): 82% and 65%; target mRNA inhibition ([1]; A431, 1 µM): 92% and 81%
ACCCTTTTGGCACCTT (sugars k4 d9 k3, PS) |  |  | target mRNA inhibition ([1]; A431, 0.0625 µM): 49%; target mRNA inhibition ([1]; A431, 0.25 µM): 79% and 76%; target mRNA inhibition ([1]; A431, 1 µM): 92% and 89%
ACGCAATGCTGACTTG (sugars kdddddkekekddddd, PS) | 71% |  | 
ACGCAATGCTGACTTG (sugars kkdddddkekeddddd, PS) | 89% |  | 

Sequence | target mRNA inhibition ([1]; A431, 2 µM) | target mRNA inhibition [2] | also measured
ACGCAATGCTGACTTG (sugars kkddddkdkdkddddd, PS) | 85% |  | 
ACGCAATGCTGACTTG (sugars kkkddddkekeddddd, PS) | 87% |  | 
ACGCAATGCTGACTTG (sugars kkkddddkekekdddd, PS) | 71% |  | 
ACTTCTGTTAGATACA (sugars k4 d9 k3, PS) |  |  | target mRNA inhibition ([1]; A431, 0.0625 µM): 38%; target mRNA inhibition ([1]; A431, 0.25 µM): 73%; target mRNA inhibition ([1]; A431, 1 µM): 90%
ACTTTACATGCACGAT (sugars kkdddddddddekeke, PS) |  |  | target mRNA inhibition ([1]; A431, 0.0156 µM): 8%; target mRNA inhibition ([1]; A431, 0.0625 µM): 25%; target mRNA inhibition ([1]; A431, 0.25 µM): 58%; target mRNA inhibition ([1]; A431, 1 µM): 84%
ACTTTATACCAGTGTC (sugars k3 d4 k3 e1 d5, PS) | 58% |  | 
ACTTTTTCACCATAGC (sugars k4 d9 k3, PS) |  |  | target mRNA inhibition ([1]; A431, 0.0625 µM): 53%; target mRNA inhibition ([1]; A431, 0.25 µM): 82%; target mRNA inhibition ([1]; A431, 1 µM): 93%
AGATGGGTACTTCTGT (sugars k4 d9 k3, PS) |  |  | target mRNA inhibition ([1]; A431, 0.0625 µM): 85%; target mRNA inhibition ([1]; A431, 0.25 µM): 88%; target mRNA inhibition ([1]; A431, 1 µM): 93%
AGATGTGTTTAGGCAT (sugars k4 d9 k3, PS) |  |  | target mRNA inhibition ([1]; A431, 0.0625 µM): 54%; target mRNA inhibition ([1]; A431, 0.25 µM): 85%; target mRNA inhibition ([1]; A431, 1 µM): 95%
AGCTTTAAACTCAGGT (sugars k2 d4 e3 k2 d5, PS) | 93% |  | 
AGCTTTAAACTCAGGT (sugars k3 d4 k3 e1 d5, PS) | 82% |  | 
AGCTTTAAACTCAGGT (sugars kdddddkekekddddd, PS) | 95% |  | target mRNA inhibition ([1]; A431, 0.0156 µM): 14%; target mRNA inhibition ([1]; A431, 0.0625 µM): 46%; target mRNA inhibition ([1]; A431, 0.25 µM): 80%; target mRNA inhibition ([1]; A431, 1 µM): 92%
AGCTTTAAACTCAGGT (sugars kkdddddkekeddddd, PS) | 94% |  | target mRNA inhibition ([1]; A431, 0.0156 µM): 31%; target mRNA inhibition ([1]; A431, 0.0625 µM): 53%; target mRNA inhibition ([1]; A431, 0.25 µM): 79%; target mRNA inhibition ([1]; A431, 1 µM): 92%
AGCTTTAAACTCAGGT (sugars kkddddekekeddddd, PS) | 92% |  | 
AGCTTTAAACTCAGGT (sugars kkddddkdkdkddddd, PS) | 86% |  | 
AGCTTTAAACTCAGGT (sugars kkddddkekekddddd, PS) | 87% |  | 
AGCTTTAAACTCAGGT (sugars kkkddddkdkdkdddd, PS) | 74% |  | 
AGGGAAATGAACGCAA (sugars k4 d9 k3, PS) |  |  | target mRNA inhibition ([1]; A431, 0.0625 µM): 38%; target mRNA inhibition ([1]; A431, 0.25 µM): 65%; target mRNA inhibition ([1]; A431, 1 µM): 85%
AGTATTGCCAGCTAAG (sugars k2 d4 e3 k2 d5, PS) | 86% |  | 
AGTATTGCCAGCTAAG (sugars kkddddkdkdkddddd, PS) | 69% |  | 
AGTATTGTTTTTGTGG (sugars kkddddekekeddddd, PS) | 89% |  | 
AGTATTGTTTTTGTGG (sugars kkddddkdkdkddddd, PS) | 72% |  | 
AGTTTTGTAAGTGCAA (sugars k3 d4 k3 e1 d5, PS) | 96% |  | target mRNA inhibition ([1]; A431, 0.0156 µM): 15%; target mRNA inhibition ([1]; A431, 0.0625 µM): 60%; target mRNA inhibition ([1]; A431, 0.25 µM): 87%; target mRNA inhibition ([1]; A431, 1 µM): 94%

Sequence | target mRNA inhibition ([1]; A431, 2 µM) | target mRNA inhibition [2] | also measured
AGTTTTGTAAGTGCAA (sugars kkddddekekeddddd, PS) | 91% |  | target mRNA inhibition ([1]; A431, 0.0156 µM): 25%; target mRNA inhibition ([1]; A431, 0.0625 µM): 53%; target mRNA inhibition ([1]; A431, 0.25 µM): 79%; target mRNA inhibition ([1]; A431, 1 µM): 91%
AGTTTTGTAAGTGCAA (sugars kkddddkdkdkddddd, PS) | 91% |  | target mRNA inhibition ([1]; A431, 0.0156 µM): 16%; target mRNA inhibition ([1]; A431, 0.0625 µM): 34%; target mRNA inhibition ([1]; A431, 0.25 µM): 72%; target mRNA inhibition ([1]; A431, 1 µM): 85%
TGTTAACAGCTGCCTG (sugars k3 d10 k3, PS) |  | 39% | 
TTAAAAGATCGCCTTC (sugars k3 d10 k3, PS) |  | 43% | 
TTAAAGTAGACCAACT (sugars k3 d10 k3, PS) |  | 27% | 
TTAAAGTGTGATAGTT (sugars k3 d10 k3, PS) |  | 6% | 
TTAAGAGCTGCTATAA (sugars k3 d10 k3, PS) |  | 6% | 
TTAAGTTGGTAATTAC (sugars k3 d10 k3, PS) |  | -6% | 
TTAATCATACTCCAGT (sugars k3 d10 k3, PS) |  | 19% | 
TTACCCCAACTAAACA (sugars k3 d10 k3, PS) |  | -4% | 
TTACCTAAACCCACCC (sugars k3 d10 k3, PS) |  | 38% | 
TTACGCAACTGAGCCC (sugars k3 d10 k3, PS) |  | 11% | 
TTACTTGCCAACTTGG (sugars k3 d10 k3, PS) |  | 70% and 68% | 
TTAGGATTCTAGACAG (sugars k3 d10 k3, PS) |  | 43% | 
TTAGGTATGAGCTTCA (sugars k3 d10 k3, PS) |  | 18% | 
TTAGTTGGCATCAAGG (sugars k3 d10 k3, PS) |  | 74% and 70% | 
TTATACATCAAGGATG (sugars k3 d10 k3, PS) |  | 4% | 
TTATAGACCCCTGACT (sugars k3 d10 k3, PS) |  | 10% | 
TTATCCTGATATTGGA (sugars k3 d10 k3, PS) |  | -12% | 
TTATTAAGAGCTGCTA (sugars k3 d10 k3, PS) |  | 27% and 44% | 
TTCAATCACAAATACG (sugars k3 d10 k3, PS) |  | 19% | 
TTCACCAAATCGCACT (sugars k3 d10 k3, PS) |  | 29% | 
TTCACCAAGGAGCTGT (sugars k3 d10 k3, PS) |  | 37% | 

Sequence | target mRNA inhibition ([1]; A431, 2 µM) | target mRNA inhibition [2] | also measured
TTCAGACCTTCTGAAC (sugars k3 d10 k3, PS) |  | -8% | 
TTCCAGGATTAATGTA (sugars k3 d10 k3, PS) |  | 37% | 
TTCCATTACGCAACTG (sugars k3 d10 k3, PS) |  | -21% | 
TTCCCATAATTGTAGT (sugars k3 d10 k3, PS) |  | 18% | 
TTCGAGAAATCGGAGC (sugars k3 d10 k3, PS) |  | -11% | 
TTCGGATGCTTCACTC (sugars k3 d10 k3, PS) |  | 48% | 
TTCGGCTTCTTTTATT (sugars k3 d10 k3, PS) |  | 44% | 
TTCGGTTTAATCTCTT (sugars k3 d10 k3, PS) |  | 94% | 
TTCTAACTTCTGCACC (sugars k3 d10 k3, PS) |  | 33% | 
TTCTAATAGCAGCGGG (sugars k3 d10 k3, PS) |  | 59% and 40% | 
TTCTTCGCCTTCCCGT (sugars k3 d10 k3, PS) |  | 66% and 49% | 
TTGAATTACTTCCGTT (sugars k3 d10 k3, PS) |  | 54% and 35% | 
TTGCCCTTCTATTGGT (sugars k3 d10 k3, PS) |  | 11% | 
TTGCCTACCACTCTAA (sugars k3 d10 k3, PS) |  | 0% | 
TTGGGAGTTACTTGCC (sugars k3 d10 k3, PS) |  | 70% and 73% | 
TTGTCCTACTTTAAGC (sugars k3 d10 k3, PS) |  | 30% | 
TTGTGAGGGAGGCAAA (sugars k3 d10 k3, PS) |  | 20% | 
TTTACACCTCAGTACG (sugars k3 d10 k3, PS) |  | 35% | 
TTTCCTCAAGCTCCGC (sugars k3 d10 k3, PS) |  | 54% | 
TTTGAACCCCGTCCTG (sugars k3 d10 k3, PS) |  | 6% | 
TTTTAAAAGATCGCCT (sugars k3 d10 k3, PS) |  | 33% | 
TTTTTACCAACCACTC (sugars k3 d10 k3, PS) |  | 26% | 
